# Experiments:
# [1] = tested on: Leishmania donovani axenic amastigote parasites; test: Leishmania donovani axenic amastigote proliferation assay (Cell TiterGlo luminescence, 2 day incubation); type: cell-based; settings: Leishmania donovani, axenic amastigotes, inhibition of proliferation; read-out: L. donovani amastigotes EC50
# [2] = tested on: L. donovani HU3 strain in mouse peritoneal macrophages; test: Assay for proliferation of Leishmania parasites in infected mouse peritoneal macrophages (SybrGreen staining, high-content imaging, 5 days); type: cell-based, Leishmania donovani; settings: Leishmania donovani, Peritoneal macrophage, L. donovani in mouse peritoneal macrophages, inhibition of proliferation; read-out: L. donovani Macrophage EC50
# [3] = tested on: Trypanosoma brucei Lister 427 strain, bloodstream form; test: Assay for proliferation of kinetoplastid parasite Trypanosoma brucei (Cell Titer Glo, 48 hours); type: cell-based; settings: Trypanosoma brucei, T. brucei Lister 427 bloodstream form, inhibition of proliferation; read-out: T. brucei EC50
# Summary of the method: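 Bloodstream-form T. brucei Lister 427 in HMI-9 medium was exposed to compound (DMSO vehicle) for 48 hours at 37° C, 5% CO2. Parasite growth was read as ATP by CellTiter-Glo luminescence, with EC50 calculated from percent inhibition.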
# [4] = tested on: Trypanosoma cruzi amastigotes (Tulahuen strain expressing Lac-Z) cultured in 3T3 fibroblast cells; test: microbe, parasite or virus in culture; type: cell-based; settings: Trypanosoma cruzi, TULAHUEN, Fibroblast, T. cruzi amastigotes in 3T3 fibroblast cells, inhibition of proliferation; read-out: T cruzi EC50
SMILES,EC50 [1],EC50 [2],EC50 [3],EC50 [4]
Cc1nc(C)c(C(=O)Nc2ccc(F)c(-c3cn4cc(NC(=O)c5nc(NC(=O)OC(C)(C)C)cn5C)cnc4n3)c2)o1 [Compound 176],> 25 µM,> 50 µM,> 50 µM,> 20 µM
COC(C)C(=O)Nc1cnc2nc(-c3cc(NC(=O)c4oc(C)nc4C)ccc3F)cn2c1 (stereo not drawn) [Compound 177],0.31 µM,0.911 µM,0.161 µM,3.47 µM
Cc1nc(C)c(C(=O)Nc2ccc(F)c(-c3cn4cc(NC(=O)c5nc(N)cn5C)cnc4n3)c2)o1 [Compound 178],6.71 µM,> 42.5 µM,2.97 µM,> 20 µM
Cc1nc(C)c(C(=O)Nc2ccc(F)c(-c3cn4cc(NC(=O)C5CNCCO5)cnc4n3)c2)o1 (stereo not drawn) [Compound 179],> 25 µM,> 45.9 µM,6.96 µM,> 20 µM
Cc1nc(C)c(C(=O)Nc2ccc(F)c(-c3cn4cc(NC(=O)[C@@H]5[C@H](N)[C@@H]6C=C[C@H]5C6)cnc4n3)c2)o1 [Compound 180],> 25 µM,> 50 µM,4.38 µM,> 20 µM
Cc1nc(C)c(C(=O)Nc2ccc(F)c(-c3cn4cc(NC(=O)[C@H]5[C@@H](N)[C@@H]6C=C[C@H]5C6)cnc4n3)c2)o1 [Compound 181],> 25 µM,33.1 µM,12.7 µM,> 20 µM
Cc1nc(C)c(C(=O)Nc2ccc(F)c(-c3cn4cc(NC(=O)C5CNCCCO5)cnc4n3)c2)o1 (stereo not drawn) [Compound 182],> 25 µM,> 50 µM,10.8 µM,> 20 µM
Cc1nc(C(=O)Nc2cnc3nc(-c4cc(NC(=O)c5oc(C)nc5C)ccc4F)cn3c2)no1 [Compound 183],3.63 µM,11.5 µM,2.1 µM,> 20 µM
Cc1nc(C)c(C(=O)Nc2ccc(F)c(-c3cn4cc(NC(=O)CN(C)C)cnc4n3)c2)o1 [Compound 186],15.8 µM,6.22 µM,0.59 µM,10.2 µM
Cc1nc(C)c(C(=O)Nc2ccc(F)c(-c3cn4cc(NC(=O)c5ncco5)cnc4n3)c2)o1 [Compound 188],0.226 µM,> 5.6 µM,0.185 µM,1.23 µM
Cc1nc(C)c(C(=O)Nc2ccc(F)c(-c3cn4cc(NC(=O)c5ccc(CN(C)C)cc5)cnc4n3)c2)o1 [Compound 189],9.07 µM,15.5 µM,4.27 µM,10.7 µM
Cc1ncc(C(=O)Nc2cnc3nc(-c4cc(NC(=O)c5oc(C)nc5C)ccc4F)cn3c2)[nH]1 [Compound 190],0.775 µM,8.48 µM,0.244 µM,12.2 µM
Cc1nc(C)c(C(=O)Nc2ccc(F)c(-c3cn4cc(NC(=O)C5(C)COC5)cnc4n3)c2)o1 [Compound 192],3.24 µM,> 25.1 µM,1.14 µM,> 20 µM
Cc1nc(C)c(C(=O)Nc2ccc(F)c(-c3cn4cc(NC(=O)C5(C)CCCO5)cnc4n3)c2)o1 (stereo not drawn) [Compound 193],0.339 µM,0.717 µM,0.201 µM,1.09 µM
Cc1nc(C)c(C(=O)Nc2ccc(F)c(-c3cn4cc(NC(=O)C5CCN(C(C)C)CC5)cnc4n3)c2)o1 [Compound 194],> 25 µM,> 50 µM,29.8 µM,> 20 µM
Cc1nc(C)c(C(=O)Nc2ccc(F)c(-c3cn4cc(NC(=O)c5ccc(CN(C)C)cn5)cnc4n3)c2)o1 [Compound 195],5.64 µM,5.33 µM,0.463 µM,2.04 µM
Cc1ncc(C(=O)Nc2ccc(F)c(-c3cn4cc(-c5ccccn5)cnc4n3)c2)o1 [Compound 198],0.007 µM,0.016 µM,0.018 µM,0.016 µM
Cc1nc(C)c(C(=O)Nc2ccc(F)c(-c3cn4cc(F)cnc4n3)c2)o1 [Compound 199],0.878 µM,6.44 µM,1.11 µM,1.06 µM
